The source of these data is patent US4530932A, “4-(1H-indol-3-yl)-α-methyl-piperidine-1-ethanol derivatives” (Roussel Uclaf, priority 1982, dated 1985).

Data set [1] concerns carotidien arterial pressure in rats. Kind of data set: Hypotensive activity (carotidien arterial pressure in anesthesized rats). It is filed as in vivo, rat (Wistar). As to conditions: rat, intravenous. As for the experimental part:
The hypotensive activity was studied on male rats of the Wistar strain weighing about 300 g and anesthesized with 50 mg/kg of nembutal intraveinously. The test products were administered intraveinously by the jugular vein and the carotidien arterial pressure was measured before and after administration of the test compounds. The variations expressed in percentage of arterial pressure after administration with respect to the initial pressure is reported in Table IV.

The subject of data set [2] is Rat arteries (arterial contractions, entry of calcium ions into the cells of smooth muscles). Kind of data set: In vitro anticalcic activity (inhibition of potassium-depolarized, calcium-induced contractions of isolated rat arteries). It is filed as cell-based. To be noted: dose inhibiting by 50% the contractions caused by potassium ions (100 mM), 37° C., read-out: CI50 (the source's name). As for the experimental part: Rat arteries decoupled in a spiral were attached to a tension collector and were maintained in tanks containing 2.5 ml of Krebs-sodium bicarbonate buffer (NaCl: 120.8 mM, KCl: 5.9 mM, MgCl2 : 1.2 mM, NaH2 PO4 : 1.2 mM, NaHCO3 : 15.5 mM, glucose: 12.6 mM), at 37° C. covered with a 95%-5% oxygen-carbon dioxide mixture. The preparations were depolarized with a buffered solution containing 100 mM of potassium ions (NaCl: 26.7 mM, KCl: 100 mM, MgCl2 : 1.2 mM, NaH2 PO4 : 1.2 mM, NaHCO3 : 15.5 mM, glucose 12.6 mM).
A volume of 25 μl of calcium chloride was added to the mixture in a manner to obtain a range of increasing concentrations of calcium ions from 0.1 to 3.0 mM and the contractions of the artery were measured to obtain a control. The operation with range of calcium ions was repeated every 15 minutes and the preparation was washed 4 times after each range. When a stable response was obtained, the operation with the range of calcium ions was effected in the presence of varying concentrations of test compounds until a stable response was obtained.
The arterial contractions depend on the entry of calcium ions into the cells of smooth muscles and are provoked by depolarization of smooth muscles by potassium ions and by action of noradrenaline freed by presynapthic level. By recommencing the operation with denerved arteries by the action of 6-hydroxy-dopamine, the specific action due to noradrenaline is suppressed.

In a further data set the target is T1, β1 adrenergic receptors (Rattus norvegicus, UniProt P18090).
T1 construct: 10 cortexes removed from the brains of male rats weighing an average of 150 g; from tissue; host or cells: cerebral cortex of male rats (membranes)
Briefly: Affinity for β1 adrenergic receptors (3H dihydroalprenolol displacement, rat brain cortex). As to conditions: relative to propranolol, 37° C., pH 7.7. Type of data set: binding. On the procedure: The test was inspired by that of Mohler et al [Science, Vol. 198 (1977), p. 849-851] and 10 cortexes removed from the brains of male rats weighing an average of 150 g were homogenized in 90 ml of 0.32M of sucrose. After centrifuging the homogenized mixture at 1000 g for 20 minutes at 0° C., the surnageant was centrifuged at 30,000 g for 15 minutes at 0° to 4° C. The culot was suspended in 120 ml of buffer Tris HCl 50 mM with a pH of 7.7 and was centrifuged at 30,000 g for 15 minutes at 0° to 4° C. The resulting culot was suspended in 480 ml of buffer Krebs Tris HCl (50 mM-pH of 7.7) and 2 ml of the suspension in the presence of 3H dihydroalprenolol at a concentration of 10^-9 M alone and with increasing concentrations of the test compound or with non-radioactive propranolol at a concentration of 10^-5 M to determine the non-specific fixation was incubated at 37° C. for 10 minutes.
The incubated suspensions were filtered through Whatman GF/C and the filters were washed 3 times with 5 ml of buffer Krebs Tris HCl (pH-7.7) at 0° C. The radioactivity of the filters was measured by liquid scintillation and the affinity of the test compounds for β1 -adrenergic receptors was compared using propranolol as a standard as in Test D. The results are reported in Table VI.

A further data set has as its system α1 adrenergic receptors. Kind of data set: Affinity for α1 adrenergic receptors (3H prazosine displacement, rat brain). To be noted: relative to phentolamine (ARL=100×(CB/CX)), 25° C., pH 7.7. Type of data set: binding. As for the experimental part:
After centrifugation at 30,000 g for 15 minutes at 0° to 4° C., the culot was suspended in 240 ml of buffer Tris HCl 50 mM (pH-7.7) and the suspension was centrifuged at 30,000 g for 20 minutes at 0° to 4° C. The new culot was suspended in 480 ml of buffer Krebs Tris HCl (pH of 7.7-50 mM) and 2 ml of the suspension in the presence of 3H prazosine at a concentration of […] alone and with increasing concentrations of the test compound or with non-radioactive phentolamine at a concentration of 10^-5 M to determine the non-specific fixation was incubated at 25° C. for 30 minutes.
The incubated suspensions were filtered through Whatman FG/C and the filtered were washed with 3 times with 5 ml of buffer Krebs Tris HCl-pH of 7.7 at 0° to 4° C. The radioactivity of the filters was measured by liquid scintillation and the affinity of the test compound for α1 adrenergic receptors was compared relative to phentolamine as the reference compound by the formula
CD=concentration of phentolamine inhibiting by 50% the specific fixation of 3H prazosine.
CX=concentration of test product inhibiting by 50% the specific fixation of 3H prazosine.

The test system of another data set is mice. Briefly: Acute toxicity (DL0, oral). It is filed as in vivo, mouse. The arrangement: unit not given here.
The subject of data set [3] is cardiac rhythm troubles in guinea pigs. Kind of data set: Antiarythmic action (K-strophanthine and adrenaline induced cardiac rhythm troubles). It is filed as in vivo, guinea pig. To be noted: Cavia porcellus, 1 h, oral 10 mg/kg, one hour before K-strophanthine and adrenaline perfusion, read-out: Percentage of protection (lengthening of the time of appearance of cardiac rhythm troubles as compared to controls). On the procedure:
Male guinea pigs weighing between 450 and 500 g were tracheotomized while anesthesized by intraperitoneal administration of […] of urethane and were subjected to artifical respiration of 40 to 50 breaths of 5 ml per minute. Needles were subcutaneously implanted to register an electrocardiogram of the guinea pigs for the signal of D II derivation. The test products were orally administered and one hour later, the jugular vein of the guinea pigs were perfused with 0.5 ml per minute of a solution of 150 γ/ml of K-strophanthine and 0.5 ml per minute of a solution of 5 γ/ml of adrenaline and the number of times of the appearance of cardiac rhythm troubles was noted. The results are expressed in percentage of protection with an oral dose of 10 mg/kg of test product that is to say the percentage of lengthening of the time of appearance of cardiac rhythm troubles as compared to the controls.

[4] abbreviates: 1 min, 1 minute, read-out: % Variation of arterial pressure after administration, 1 minute.
Setting [5] is: 5 min, 5 minutes, read-out: % Variation of arterial pressure after administration, 5 minutes.
The mark [6] stands for this setting: 10 min, 10 minutes, read-out: % Variation of arterial pressure after administration, 10 minutes.
The mark [7] stands for this setting: 0.5 h, 30 minutes, read-out: % Variation of arterial pressure after administration, 30 minutes.

Molecules are shown by their SMILES. Counter-ions that a name gives are not always drawn. Like-named read-outs stand apart in the source and are kept apart here.

T1 sequence (P18090 whole entry): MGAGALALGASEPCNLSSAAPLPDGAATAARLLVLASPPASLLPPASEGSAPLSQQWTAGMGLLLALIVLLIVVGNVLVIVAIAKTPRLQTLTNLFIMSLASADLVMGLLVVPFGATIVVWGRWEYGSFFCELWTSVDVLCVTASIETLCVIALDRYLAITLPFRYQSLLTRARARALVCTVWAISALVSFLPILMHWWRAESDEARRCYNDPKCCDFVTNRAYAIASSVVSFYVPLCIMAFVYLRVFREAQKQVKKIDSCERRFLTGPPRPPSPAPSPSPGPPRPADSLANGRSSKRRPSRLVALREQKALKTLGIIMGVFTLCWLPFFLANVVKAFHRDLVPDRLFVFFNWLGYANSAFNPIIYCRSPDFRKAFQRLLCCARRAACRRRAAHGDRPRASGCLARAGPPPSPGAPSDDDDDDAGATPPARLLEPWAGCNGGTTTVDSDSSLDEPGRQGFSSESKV

As for `OC(COc1ccccc1F)CN1CCC(c2c[nH]c3ccccc23)CC1` (stereo not drawn) [Example 12, 4-(1H--indol-3-yl)-α-[2-fluorophenoxymethyl]-piperidine-1-ethanol hydrochloride], the change in vivo at 1 mg/kg in data set [1] (setting [4]) is -27%; in data set [1] (setting [5]), -14%; in data set [1] (setting [6]), -27%; in data set [1] (setting [7]), -24%. Besides, the IC50 in data set [2] was 3.2 µM. Also, the “ARL in % (relative affinity for β1 adrenergic receptors)” value at β1 adrenergic receptors is on record as 1.2%. The “% Arl (relative affinity for α1 adrenergic receptors)” value in the data set with α1 adrenergic receptors was found to be 233%. Besides, the “DL0 (maximum dose which did not cause any deaths after 8 days)” value in the data set on mice is recorded as 80. In addition, the change in vivo at 10 mg/kg in data set [3] stood at 90%.

For `Cc1ccccc1OCC(O)CN1CCC(c2c[nH]c3ccccc23)CC1` (stereo not drawn) [Example 9, 4-(1H--indol-3-yl)-α-[2-methylphenoxymethyl]-piperidine-1-ethanol hydrochloride], the change in vivo at 1 mg/kg in data set [1] (setting [4]) is -21%; in data set [1] (setting [5]), -9%; in data set [1] (setting [6]), -25%; in data set [1] (setting [7]), -20%. Besides, the IC50 in data set [2] stood at 3.8 µM. Moreover, the “ARL in % (relative affinity for β1 adrenergic receptors)” value on β1 adrenergic receptors amounted to 2.55%. Moreover, the “% Arl (relative affinity for α1 adrenergic receptors)” value in the data set on α1 adrenergic receptors is recorded as 92%. Besides, the “DL0 (maximum dose which did not cause any deaths after 8 days)” value in the data set on mice is reported as over 100. Also, the change in vivo at 10 mg/kg in data set [3] was 48%.

Turning to `OC(COc1ccccc1Cl)CN1CCC(c2c[nH]c3ccccc23)CC1` (stereo not drawn) [Example 10, 4-(1H--indol-3-yl)-α-[2-chlorophenoxymethyl]-piperidine-1-ethanol hydrochloride], the change in vivo at 1 mg/kg is -21% in data set [1] (setting [4]), -20% in data set [1] (setting [5]), -12% in data set [1] (setting [6]) and -20% in data set [1] (setting [7]). In addition, in data set [2], the IC50 is 2 µM. Moreover, the “ARL in % (relative affinity for β1 adrenergic receptors)” value on β1 adrenergic receptors came to 1.95%. The “DL0 (maximum dose which did not cause any deaths after 8 days)” value with mice is recorded as over 100. Also, the change in vivo at 10 mg/kg in data set [3] worked out at 59%.

For `Oc1ccccc1OCC(O)CN1CCC(c2c[nH]c3ccccc23)CC1` (stereo not drawn) [Example 13, 4-(1H--indol-3-yl)-α-[2-hydroxy-phenoxymethyl]-piperidine-1-ethanol hydrochloride], the IC50 in data set [2] was 4.5 µM. Also, the “ARL in % (relative affinity for β1 adrenergic receptors)” value on β1 adrenergic receptors came out at 1.1%. Further, the “% Arl (relative affinity for α1 adrenergic receptors)” value in the data set with α1 adrenergic receptors came to 293%. Also, the “DL0 (maximum dose which did not cause any deaths after 8 days)” value with mice is recorded as over 100. The change in vivo at 10 mg/kg in data set [3] was determined as 112%.

Turning to `OC(COc1cccc2ccccc12)CN1CCC(c2c[nH]c3ccccc23)CC1` (stereo not drawn) [Example 2, 4-(1H-indol-3-yl)-α-[1-naphthyloxymethyl]-piperidine-1-ethanol], the IC50 in data set [2] turned out to be 3.5 µM. Further, the “ARL in % (relative affinity for β1 adrenergic receptors)” value on β1 adrenergic receptors turned out to be 0.9%. In the data set with mice, the “DL0 (maximum dose which did not cause any deaths after 8 days)” value is over 1000.

On to `Cc1ccc(OCC(O)CN2CCC(c3c[nH]c4ccccc34)CC2)cc1` (stereo not drawn) [Example 21, 4-(1H--indol-3-yl)-α-[4-methylphenoxymethyl]-piperidine-1-ethanol hydrochloride], for which, in data set [2], the IC50 came out at 1.8 µM. In addition, in the data set on α1 adrenergic receptors, the “% Arl (relative affinity for α1 adrenergic receptors)” value turned out to be 93%. Further, the “DL0 (maximum dose which did not cause any deaths after 8 days)” value in the data set on mice was over 100. In addition, the change in vivo at 10 mg/kg in data set [3] stood at 60%.

With `COc1ccc(OCC(O)CN2CCC(c3c[nH]c4ccccc34)CC2)cc1` (stereo not drawn) [Example 8, 4-(1H--indol-3-yl)-α-[4-methoxyphenoxymethyl]-piperidine-1-ethanol hydrochloride], the change in vivo at 1 mg/kg in data set [1] (setting [4]) was -10%; in data set [1] (setting [5]), -13%; in data set [1] (setting [6]) it was 0%; in data set [1] (setting [7]) it was -13%. Moreover, the IC50 in data set [2] was 4.2 µM. Further, the “% Arl (relative affinity for α1 adrenergic receptors)” value in the data set with α1 adrenergic receptors is recorded as 222%. The “DL0 (maximum dose which did not cause any deaths after 8 days)” value with mice is reported as over 200. Moreover, in data set [3], the change in vivo at 10 mg/kg came to 57%.

In the case of `O=[N+]([O-])c1ccccc1OCC(O)CN1CCC(c2c[nH]c3ccccc23)CC1` (stereo not drawn) [Example 11, 4-(1H--indol-3-yl)-α-[2-nitrophenoxymethyl]-piperidine-1-ethanol hydrochloride], the IC50 in data set [2] turned out to be 4.2 µM. Also, the “ARL in % (relative affinity for β1 adrenergic receptors)” value on β1 adrenergic receptors turned out to be 1.2%. The “% Arl (relative affinity for α1 adrenergic receptors)” value in the data set with α1 adrenergic receptors turned out to be 77%. The “DL0 (maximum dose which did not cause any deaths after 8 days)” value with mice was 100. In addition, the change in vivo at 10 mg/kg in data set [3] stood at 56%.
